Assay results as given in patent publication US10081616B2, “Soluble epoxide hydrolase inhibitors and uses thereof” (X-Chem, Inc., priority 2014, dated 2018).

Molecular target: T1, sEH (Homo sapiens, UniProt P34913)
T1 construct: purchased Cayman Chemical 10011669
T1 sequence (P34913 1-555): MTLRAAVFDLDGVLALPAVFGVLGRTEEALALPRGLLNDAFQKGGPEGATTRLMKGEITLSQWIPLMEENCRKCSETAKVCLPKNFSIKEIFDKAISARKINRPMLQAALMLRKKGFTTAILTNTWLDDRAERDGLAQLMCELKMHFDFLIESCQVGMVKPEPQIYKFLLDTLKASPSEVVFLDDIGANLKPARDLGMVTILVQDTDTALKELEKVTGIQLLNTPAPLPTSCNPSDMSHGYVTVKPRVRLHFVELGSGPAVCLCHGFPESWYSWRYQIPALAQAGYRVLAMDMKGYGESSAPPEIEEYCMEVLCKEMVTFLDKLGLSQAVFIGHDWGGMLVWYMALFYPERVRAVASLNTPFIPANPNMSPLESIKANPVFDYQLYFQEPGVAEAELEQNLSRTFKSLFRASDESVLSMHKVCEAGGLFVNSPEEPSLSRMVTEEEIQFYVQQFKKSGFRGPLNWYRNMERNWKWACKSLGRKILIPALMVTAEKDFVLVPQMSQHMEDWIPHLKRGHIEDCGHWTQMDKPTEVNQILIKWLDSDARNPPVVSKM
Experiment: sEH inhibition assay (Epoxy Fluor 7 substrate, fluorescence)
Format: biochemical
Conditions: enzyme 3 nM, 15 min pre-incubation at room temperature, read at 30° C. for 20 minutes, read-out: IC50 against sEH
Procedure: The sEH inhibition assay was conducted in costar 384 well black NBS plates (Corning). The assay buffer used was 25 mM Tris pH 7.0 and 0.1 mg/ml BSA. The enzyme was purchased from Cayman Chemical (10011669) at a stock concentration of 15.625 μM. The Epoxy Fluor 7 substrate also from Cayman Chemical (10008610) was dissolved in DMSO at a concentration of 25.68 mM. This was further diluted ten-fold in DMSO to a concentration of 2.568 mM. Competition assays were performed with 5 μL Epoxy Fluor 7 diluted from DMSO stock to a final concentration of 5 nM, 5 μL of competitor (final concentration 10 μM-0.5 nM), and 10 μL enzyme (final concentration of 3 nM) in the assay buffer for a total volume of 20 μL. The compound was pre-incubated with enzyme for 15 min at room temperature prior to addition of substrate. The plate was read kinetically at excitation 330 nm and emission 465 nm wavelengths at 30° C. for 20 minutes on the Tecan M1000. The rate was calculated for the linear portion of the curves (2.5-12.5 minutes) and data fit to a sigmoidal curve.

IC50: 2 nM
SMILES: CN(CCn1cccn1)C(=O)c1ccc(-c2cccc(C(=O)NC3CCCCC3)c2)nc1 [Compound 1, N-(2-(1H-pyrazol-1-yl)ethyl)-6-(3-(cyclohexylcarbamoyl)phenyl)-N-methylnicotinamide]
